Assay results from patent publication US20220305121A1, “N-ARYL SULFONAMIDE DERIVATIVES AS VACCINE ADJUVANT” (The Regents of the University of California, priority 2019, published 2022).

Key:
Format in all cases: cell-based
ISRE = assay: Measurement of ISRE activity in ISRE-bla THP-1 cells (FRET, IFN-α as primary stimulus); conditions: for activity at 5 µM: Homo sapiens, THP-1, read-out: ISRE % Activation; for activity at 5 µM / ISRE % Activation: compound 5 μM + IFN-α 100 U/mL, 16 hours, two point normalized: compound 1 + IFN-α = 200%, IFN-α = 100%, mean
Procedure: (§1) ISRE-bla THP-1 cells were plated in 96-well plates at 5×10^4 cells/well in 50 μl RPMI supplemented with 10% dialyzed FBS (Atlanta Biologicals, Inc., GA), 0.1 mM nonessential amino acids, 1 mM sodium pyruvate, 100 U/mL penicillin and 100 μg/ml streptomycin. Type I IFN-α (R&D Systems, #11200-2) solution was prepared in assay medium at a concentration of 200 U/mL Tested compounds were dissolved in DMSO at 1 mM and were further diluted in the IFN-α solution to a final concentration of 10 μM. 50 μL of this solution was then transferred to the plated cells to obtain a final concentration of IFN-α at 100 U/mL and compound at 5 μM ([…]), The cells were incubated for 16 hours, after which 20 μL of 6×LiveBLAzer™ FRET B/G Substrate (CCF4-AM) mixture (prepared according to the manufacturer's instructions) was added to each well, Plates were incubated at room temperature in the dark for 3 hours. Fluorescence was measured on a Tecan Infinite M200 plate reader at an excitation wavelength of 405 nm, and emission wavelengths of 465 nm and 535 nm. Background values (cell free wells at the same fluorescence wavelength) were subtracted from the raw fluorescence intensity values and the emission ratios were calculated as the ratio of background subtracted fluorescence intensities at 465 nm to background subtracted fluorescence intensities at 535 nm. The ISRE activity values for these compounds were 2-point normalized to yield activity of compound 1+IFN-α as 200% and activity for IFN-α as 100%.
Measurement of ISRE Activity in ISRE-bla THP-1 Cells. ISREbla THP-1 cells were plated in 96-well plates at 5×10^4 cells/well in 50 μL of RPMI supplemented with 10% dialyzed FBS (Atlanta Biologicals, Inc., GA), 0.1 mM nonessential amino acids, 1 mM sodium pyruvate, 100 U/mL penicillin, and 100 μg/mL streptomycin. Type I IFN-α (R&D Systems, no. 11200-2) solution was prepared in assay medium at a concentration of 200 U/mL. Tested compounds were dissolved in DMSO at 1 mM and were further diluted in the IFN-α solution to a final concentration of 10 μM. 50 μL of this solution was then transferred to the plated cells to obtain a final concentration of IFN-α at 100 U/mL and compound at 5 μM ([…]). The cells were incubated for 16 hours, after which 20 μL of 6×LiveBLAzer FRET B/G substrate (CCF4-AM) mixture (prepared according to the manufacturer's instructions) was added to each well. Plates were incubated at room temperature in the dark for 3 hours. Fluorescence was measured on a Tecan Infinite M200 plate reader at an excitation wavelength of 405 nm and emission wavelengths of 465 and 535 nm. Background values (cell free wells at the same fluorescence wavelength) were subtracted from the raw fluorescence intensity values and the emission ratios were calculated as the ratio of background subtracted fluorescence intensities at 465 nm to background subtracted fluorescence intensities at 535 nm. The ISRE activity values for these compounds were two-point normalized to yield activity of compound 1+IFN-α as 200% and activity for IFN-α as 100%.

NF-κB = assay: Measurement of NF-κB activation using THP1-Blue NF-κB cells (SEAP reporter, LPS as primary stimulus); conditions: compound 5 μM + LPS, 20 hour incubation; two point normalized: compound 1 + LPS = 200%, LPS = 100%; mean
Procedure: (§2) THP1-Blue™ NF-κB cells were plated in 96-well plates at 10^5 cells/well in 100 μl RPMI supplemented with 10% fetal bovine serum (FBS, Omega Scientific, Inc., Tarzana, Calif.), 100 U/mL penicillin, 100 μg/ml streptomycin (Thermo Fisher Scientific) and Normocin (Invivogen). LPS was prepared in assay medium at a concentration of 20 μg/mL. Tested compounds were dissolved in DMSO at 1 mM as a stock solution and were further diluted in the LPS solution to a final concentration of 10 μM. 100 μL of this solution was then transferred to the plated cells to obtain a final concentration of LPS at 10 μg/mL and compound at 5 μM ([…]). The culture supernatants were harvested after a 20 hour incubation period, SEAP activity in the culture supernatants was determined by a colorimetric assay using QuantiBlue (Invivogen). Plate absorbance was read at 630 nm using a Tecan Infinite M200 plate reader (Männedorf, Switzerland). The SEAP concentration was directly proportional to NF-κB activity, which was 2-point normalized to yield activity of compound 1+LPS as 200% and activity for LPS as 100%.
(§3) Measurement of NF-κB Activation Using THP1-Blue NF-κB Cells. THP1-Blue NF-κB cells were plated in 96-well plates at 10^5 cells/well in 100 μL of RPMI supplemented with 10% fetal bovine serum (FBS, Omega Scientific, Inc., Tarzana, Calif.), 100 U/mL penicillin, 100 μg/mL streptomycin (Thermo Fisher Scientific), and Normocin (Invivogen). LPS was prepared in assay medium at a concentration of 20 μg/mL. Tested compounds were dissolved in DMSO at 1 mM as a stock solution and were further diluted in the LPS solution to a final concentration of 10 μM. 100 μL of this solution was then transferred to the plated cells to obtain a final concentration of LPS at 10 μg/mL and compound at 5 μM ([…]). The culture supernatants were harvested after a 20 hours incubation period. SEAP activity in the culture supernatants was determined by a colorimetric assay using QuantiBlue (Invivogen). Plate absorbance was read at 630 nm using a Tecan Infinite M200 plate reader (Mannedorf, Switzerland). The SEAP concentration was directly proportional to NF-κB activity, which was two-point normalized to yield activity of compound 1+LPS as 200% and activity for LPS as 100%.

THP-1 cells = assay: Cell viability assay (MTT); conditions: compound 5 μM, 18 hours incubation; normalized to DMSO as 100%; mean
Procedure: THP-1 cells were plated in 96-well plates (10^5 cells/well) in 100 μL RPMI supplemented with 10% FBS, 100 U/mL penicillin and 100 μg/ml streptomycin. Compounds were dissolved in DMSO at 1 mM stock solution and were further diluted to 10 μM in the assay medium. 100 μL of this solution was added to the cells to obtain a final compound concentration of 5 μM ([…]). After 18 hours incubation, a solution of MTT in assay media (0.5 mg/mL) was added to each well and further incubated for 4 to 6 hours, followed by addition of cell lysis buffer (15% w/v SDS and 0.12% v/v 12N HCl aqueous solution), incubated overnight, and then absorbance measured at 570 nm using 650 nm as reference using Tecan Infinite M200 plate reader.
Cell Viability Assay. THP-1 cells were plated in 96-well plates (10^5 cells/well) in 100 μL RPMI supplemented with 10% FBS, 100 U/mL penicillin, and 100 μg/mL streptomycin. Compounds were dissolved in DMSO at 1 mM stock solution and were further diluted to 10 μM in the assay medium. 100 μL of this solution was added to the cells to obtain a final compound concentration of 5 μM ([…]). After 18 h incubation, a solution of MTT in assay media (0.5 mg/mL) was added to each well and further incubated for 4-6 hours, followed by addition of cell lysis buffer (15% w/v SDS and 0.12% v/v 12 N HCl aqueous solution), incubation overnight, and then absorbance was measured at 570 nm using 650 nm as reference using Tecan Infinite M200 plate reader.

NF-κB and ISRE = NF-κB and ISRE reporter assays (primary screens), statements in words for both assays; conditions: with LPS or IFN-α as primary stimulus; compared to compound 1
Procedure: as §2, §1, §3
Measurement of ISRE Activity in ISRE-bla THP-1 Cells. […]

CCOc1ccc(S(=O)(=O)Nc2cc(OC)c(Br)cc2OC)cc1 [Compound 7, N-(4-bromo-2,5-dimethoxyphenyl)-4-ethoxybenzenesulfonamide] was tested. Which activity at 5 µM (ISRE) did it give?
Its activity at 5 µM is 235%.

What about the “ISRE activity (in words)” value (ISRE; with IFN-α) of the same compound?
Its value is “slightly skewed ISRE activity”.

What about the activity at 5 µM (NF-κB) of the same compound?
Its activity at 5 µM is 176%.

What about the “MTT % Viability” value (THP-1 cells) of the same compound?
The value was 68.8%.

And the “activity in NF-κB and ISRE assays (in words)” value (NF-κB and ISRE)?
Its value is “retained activity”.

Which results are given for CCCc1ccc(S(=O)(=O)Nc2cc(OC)c(Cl)cc2OC)cc1 [Compound 16, N-(4-chloro-2,5-dimethoxyphenyl)-4-propylbenzenesulfonamide]?
activity at 5 µM (ISRE): 103%; activity at 5 µM (NF-κB): 102%; MTT % Viability (THP-1 cells): 85.7%; activity in NF-κB and ISRE assays (in words) (NF-κB and ISRE): loss of activity

C#CCOc1ccc(S(=O)(=O)Nc2cc(OC)c(Cl)cc2OC)cc1 [Compound 15, N-(4-chloro-2,5-dimethoxyphenyl)-4-(prop-2-yn-1-yloxy) benzenesulfonamide] was tested. Which “ISRE % Activation” value (ISRE) did it give?
The value was 99%.

And the “NF-κB % Activation” value (NF-κB)?
The value was 97%.

And the “MTT % Viability” value (THP-1 cells)?
Its value is 80.9%.

And the “activity in NF-κB and ISRE assays (in words)” value (NF-κB and ISRE)?
Its value is “inactive”.

With COc1ccc(S(=O)(=O)Nc2cc(OC)c(Cl)cc2OC)cc1N [Compound 60, 3-Amino-N-(4-chloro-2,5-dimethoxyphenyl)-4-methoxybenzenesulfonamide] as the compound, how does the “MTT % Viability” value (THP-1 cells) read?
The value was 77.3%.

What about the “activity in NF-κB and ISRE assays (in words)” value (NF-κB and ISRE) of the same compound?
The value was “resurgence of activity”.

Which “MTT % Viability” value (THP-1 cells) does the source give for COc1cc(NS(=O)(=O)c2ccc(C(=O)O)cc2)c(OC)cc1Cl [Compound 28, 4-(N-(4-chloro-2,5-dimethoxyphenyl)sulfamoyl)benzoic acid] here?
The value was 98.2%.

And the “activity in NF-κB and ISRE assays (in words)” value (NF-κB and ISRE)?
Its value is “lost activity”.

What does the source list for COc1cc(NS(=O)(=O)c2ccc([N+](=O)[O-])cc2)c(OC)cc1Cl [Compound 17, N-(4-chloro-2,5-dimethoxyphenyl)-4-nitrobenzenesulfonamide]?
activity at 5 µM (ISRE): 103%; activity at 5 µM (NF-κB): 101%; MTT % Viability (THP-1 cells): 97.4%

Which results are given for CCCCOc1ccc(S(=O)(=O)Nc2cc(OC)c(Cl)cc2OC)cc1 [Compound 14, 4-Butoxy-N-(4-chloro-2,5-dimethoxyphenyl)benzenesulfonamide]?
activity at 5 µM (ISRE): 106%; activity at 5 µM (NF-κB): 101%; MTT % Viability (THP-1 cells): 95.3%

How did the “MTT % Viability” value (THP-1 cells) turn out when CCOc1ccc(S(=O)(=O)Nc2cc(OC)c(N=[N+]=[N-])cc2OC)cc1 [Compound 59, N-(4-azido-2,5-dimethoxyphenyl)-4-ethoxybenzenesulfonamide] was run?
The value was 76.6%.

What about the “activity in NF-κB and ISRE assays (in words)” value (NF-κB and ISRE) of the same compound?
The value was “potent”.

COc1cc(NS(=O)(=O)c2ccc(OC)c(N=[N+]=[N-])c2)c(OC)cc1Cl [Compound 61, 3-Azido-N-(4-chloro-2,5-dimethoxyphenyl)-4-methoxybenzenesulfonamide] was tested. Which “MTT % Viability” value (THP-1 cells) did it give?
The value was 87.2%.

What about the “activity in NF-κB and ISRE assays (in words)” value (NF-κB and ISRE) of the same compound?
Its value is “inactive”.

How did the “activity in NF-κB and ISRE assays (in words)” value (NF-κB and ISRE) turn out when CCOc1ccc(NS(=O)(=O)c2cc(OC)c(Cl)cc2OC)cc1 [Compound 31, 4-Chloro-N-(4-ethoxyphenyl)-2,5-dimethoxybenzenesulfonamide] was run?
The value was “inactivity”.

What does the source list for C#CCCCN(c1cc(OC)c(Cl)cc1OC)S(=O)(=O)c1ccc(OCC)cc1 [Compound 44, N-(4-chloro-2,5-dimethoxyphenyl)-4-ethoxy-N-(pent-4-yn-1-yl) benzenesulfonamide]?
ISRE % Activation (ISRE): 184%; NF-κB % Activation (NF-κB): 182%; MTT % Viability (THP-1 cells): 70.7%

What does the source list for C#CCCN(c1cc(OC)c(Cl)cc1OC)S(=O)(=O)c1ccc(OCC)cc1 [Compound 43, N-(but-3-yn-1-yl)-N-(4-chloro-2,5-dimethoxyphenyl)-4-ethoxybenzenesulfonamide]?
activity at 5 µM (ISRE): 201%; activity at 5 µM (NF-κB): 206%; MTT % Viability (THP-1 cells): 70.1%

COC(=O)c1ccc(S(=O)(=O)Nc2cc(OC)c(Cl)cc2OC)cc1 [Compound 26, Methyl 4-(N-(4-chloro-2,5-dimethoxyphenyl)sulfamoyl)benzoate] was tested. Which activity at 5 µM (ISRE) did it give?
The activity at 5 µM was 202%.

And the activity at 5 µM (NF-κB)?
The activity at 5 µM was 191%.

What about the “MTT % Viability” value (THP-1 cells) of the same compound?
Its value is 74.4%.
